Format in all cases: cell-based
The subject of one data set is HCV Replicon 1B. The data set is described as follows: HCV Replicon 1B EC50 (Example Q). The settings on record: Hepatitis C virus, 72 h; HCV replicon cells, 3 days, Dual-Glo luciferase; read-out: HCV Replicon 1B EC50 (nM) (per Ex. Q). Here is the method:
(§1) Compounds were serially diluted in ten steps of 1:3 dilutions in 384-well plates. All serial dilutions were performed in four replicates per compound within the same 384-well plate. An HCV protease inhibitor ITMN-191 at […] was added as a control of 100% inhibition of HCV replication while puromycin at 10 mM was included as a control of 100% cytotoxicity. To each well of a black polystyrene 384-well plate (Greiner Bio-one, Monroe, NC), 90 μL of cell culture medium (without Geneticin) containing 2000 suspended HCV replicon cells was added with a Biotek μFlow workstation. For compound transfer into cell culture plates, 0.4 μL of compound solution from the compound serial dilution plate was transferred to the cell culture plate on a Biomek FX workstation. The DMSO concentration in the final assay wells was 0.44%. The plates were incubated for 3 days at 37° C. with 5% CO2 and 85% humidity. The HCV replicon assay was a multiplex assay, able to assess both cytotoxicity and antireplicon activity from the same well. The CC50 assay was performed first. The media in the 384-well cell culture plate was aspirated, and the wells were washed four times with 100 μL of PBS each, using a Biotek ELX405 plate washer. A volume of 50 μL of a solution containing 400 nM calcein AM (Anaspec, Fremont, CA) in 1×PBS was added to each well of the plate with a Biotek μFlow workstation. The plate was incubated for 30 min at room temperature before the fluorescence signal (excitation 490 nm, emission 520 nm) was measured with a Perkin-Elmer Envision plate reader. The EC50 assay was performed in the same wells as the CC50 assay. The calcein-PBS solution in the 384-well cell culture plate was aspirated with a Biotek ELX405 plate washer. A volume of 20 μL of Dual-Glo luciferase buffer (Promega, Madison, WI) was added to each well of the plate with a Biotek μFlow Workstation. The plate was incubated for 10 min at room temperature. A volume of 20 μL of a solution containing a 1:100 mixture of Dual-Glo Stop & Glo substrate (Promega, Madison, WI) and Dual-Glo Stop & Glo buffer (Promega, Madison, WI) was added to each well of the plate with a Biotek μFlow Workstation. The plate was then incubated at room temperature for 10 min before the luminescence signal was measured with a Perkin-Elmer Envision Plate Reader.

Data set [1] is described as follows: HCV Replicon 1B CC50, calcein AM (Example Q). The settings on record: HCV replicon cells (1B), calcein AM fluorescence, read-out: HCV Replicon 1B CC50 (nM) (per Ex. Q). Here is the method:
as §1

Data set [2] can be described thus: HCV Replicon 2A CC50, calcein AM (Example Q). The note with it: HCV replicon cells (2A), calcein AM fluorescence, read-out: HCV Replicon 2A CC50 (nM) (per Ex. Q). Here is the method:
as §1

Another data set concerns HCV Replicon 2A. The data set is described as follows: HCV Replicon 2A EC50 (Example Q). The settings on record: Hepatitis C virus, 72 h; HCV replicon cells, 3 days, Dual-Glo luciferase; read-out: HCV Replicon 2A EC50 (nM) (per Ex. Q). Here is the method: as §1
The next data set can be described thus: in vitro. The note with it: human. As to the method: H1-HeLa cell viability was measured using the CellTiter-Glo® Luminescent Cell Viability Assay kit (Promega, Cat #G7573) according to the manufacturer's protocol. H1-HeLa cells were maintained in Dulbecco's Modified Eagle's Medium with high glucose (Gibco, Cat #: 11995073) supplemented with 10% FBS (HyClone, Cat #: SH303396.03), 100 units/mL penicillin and 100 µg/mL streptomycin (Gibco, Cat #: 15140122). One day before compound treatment, H1-HeLa cells were seeded at […] into 96-well plates (Corning, Cat #3904) in Opti-MEM (Gibco, Cat #: 31985070) supplemented with 2% FBS, and were incubated at 37° C. in a 100% humid atmosphere containing 5% (v/v) CO2. After overnight incubation, the cells were treated with three-fold serial dilutions of the compound. At 96 hours post treatment, CellTiter-Glo reagents were added into each well and luminescence signals were recorded by an EnVision plate reader. The relative cell viability was calculated by normalizing the absorbance of the compound-treated groups to that of the DMSO-treated groups (set as 100% viability) and 10 μM puromycin treated groups (set as 0% viability). The CC50 (compound concentration for reducing 50% of cell viability) was calculated using a nonlinear regression model (four parameters).

What is called EC50 is the concentration that produces a half-maximal response. The CC50 is the concentration giving 50% cytotoxicity.

As to `CCCCCCCCCCCCCCCCCCOC[C@H](COP(=O)(O)OC[C@@]1(C#N)O[C@@H](c2ccc3c(N)ncnn23)[C@H](O)[C@@H]1O)Oc1cccc(C#N)n1` [Compound 21, ((2R,3S,4R,5S)-5-(4-aminopyrrolo[2,1-f][1,2,4]triazin-7-yl)-2-cyano-3,4-dihydroxytetrahydrofuran-2-yl)methyl ((R)-2-((6-cyanopyridin-2-yl)oxy)-3-(octadecyloxy)propyl) hydrogen phosphate], the EC50 was determined as 13300 nM in the data set with HCV Replicon 1B and 19200 nM in the data set on HCV Replicon 2A. Further, the CC50 at 3 days in data set [1] and in data set [2] was greater than 44400 nM each time.
Consider `CCCCCCCCCCCCCCCCCCOC[C@H](COP(=O)(O)OC[C@@]1(C#N)O[C@@H](c2ccc3c(N)ncnn23)[C@H](O)[C@@H]1O)Oc1ccc(C#N)c(OC(C)C)c1` [Compound 23, ((2R,3S,4R,5S)-5-(4-aminopyrrolo[2,1-f][1,2,4]triazin-7-yl)-2-cyano-3,4-dihydroxytetrahydrofuran-2-yl)methyl ((R)-2-(4-cyano-3-isopropoxyphenoxy)-3-(octadecyloxy)propyl) hydrogen phosphate], for which, in “in vitro”, the CC50 at 96 h is 10.8 µM.
On the same count and under the same terms, to `CCCCCCCCCCCCCCCCCCC[C@H](COP(=O)(O)OC[C@@]1(C#N)O[C@@H](c2ccc3c(N)ncnn23)[C@H](O)[C@@H]1O)OCc1cc(F)cc(C#N)c1` [Compound 25, ((2R,3S,4R,5S)-5-(4-aminopyrrolo[2,1-f][1,2,4]triazin-7-yl)-2-cyano-3,4-dihydroxytetrahydrofuran-2-yl)methyl ((R)-2-((3-cyano-5-fluorobenzyl)oxy)henicosyl) hydrogen phosphate] belongs 8.49 µM; to `CCCCCCCCCCCCCCCCCCC[C@H](COP(=O)(O)OC[C@@]1(C#N)O[C@@H](c2ccc3c(N)ncnn23)[C@H](O)[C@@H]1O)OCc1ccc(C#N)c(OC(C)C)c1` [Compound 28, ((2R,3S,4R,5S)-5-(4-aminopyrrolo[2,1-f][1,2,4]triazin-7-yl)-2-cyano-3,4-dihydroxytetrahydrofuran-2-yl)methyl ((R)-2-((4-cyano-3-isopropoxybenzyl)oxy)henicosyl) hydrogen phosphate], 9.9 µM; to `CCCCCCCCCCCCCCCCCCCC[C@H](COP(=O)(O)OC[C@@]1(C#N)O[C@@H](c2ccc3c(N)ncnn23)[C@H](O)[C@@H]1O)OCc1cc(F)cc(C#N)c1` [Compound 34, ((2R,3S,4R)-5-(4-aminopyrrolo[2,1-f][1,2,4]triazin-7-yl)-2-cyano-3,4-dihydroxytetrahydrofuran-2-yl)methyl ((R)-2-((3-cyano-5-fluorobenzyl)oxy)docosyl) hydrogen phosphate], 4.69 µM.
Regarding `CCCCCCCCCCCCCCCCCC[C@@H](COP(=O)(O)OC[C@@]1(C#N)O[C@@H](c2ccc3c(N)ncnn23)[C@H](O)[C@@H]1O)OCc1cc(F)cc(C#N)c1` [Compound 37, ((2R,3S,4R)-5-(4-aminopyrrolo[2,1-f][1,2,4]triazin-7-yl)-2-cyano-3,4-dihydroxytetrahydrofuran-2-yl)methyl ((S)-2-((3-cyano-5-fluorobenzyl)oxy)icosyl) hydrogen phosphate], the values for the EC50 with HCV Replicon 1B and with HCV Replicon 2A were 22500 nM and 26000 nM, respectively. Besides, the CC50 at 3 days in data set [1] and in data set [2] was greater than 44400 nM in each case.
As to `CCCCCCCCCCCCCCCCCCC[C@H](COP(=O)(O)OC[C@@]1(C#N)O[C@@H](c2ccc3c(N)ncnn23)[C@H](O)[C@@H]1O)Oc1ccc(C#N)c(OC(C)C)c1` [Compound 38, ((2R,3S,4R,5S)-5-(4-aminopyrrolo[2,1-f][1,2,4]triazin-7-yl)-2-cyano-3,4-dihydroxytetrahydrofuran-2-yl)methyl ((R)-2-(4-cyano-3-isopropoxyphenoxy)henicosyl) hydrogen phosphate], in “in vitro”, the CC50 at 96 h is 6.19 µM.
The same measure, in the same setting: to `CCCCCCCCCCCCCCCCCCOCC(COc1cc(F)cc(C#N)c1)COP(=O)(O)OC[C@@]1(C#N)O[C@@H](c2ccc3c(N)ncnn23)[C@H](O)[C@@H]1O` (stereo partly drawn) [Compound 43, ((2R,3S,4R,5S)-5-(4-aminopyrrolo[2,1-f][1,2,4]triazin-7-yl)-2-cyano-3,4-dihydroxytetrahydrofuran-2-yl)methyl (3-(3-cyano-5-fluorophenoxy)-2-((octadecyloxy)methyl)propyl) hydrogen phosphate] belongs 4 µM.
As for `CCCCCCCCCCCCCCCCCCCC[C@H](COP(=O)(O)OC[C@@]1(C#N)O[C@@H](c2ccc3c(N)ncnn23)[C@H](O)[C@@H]1O)Oc1cccc(C#N)c1` [Compound 51, ((2R,3S,4R,5S)-5-(4-aminopyrrolo[2,1-f][1,2,4]triazin-7-yl)-2-cyano-3,4-dihydroxytetrahydrofuran-2-yl)methyl ((R)-2-(3-cyanophenoxy)docosyl) hydrogen phosphate], the EC50 was 14600 nM with HCV Replicon 1B and 19200 nM in the data set on HCV Replicon 2A. Also, the CC50 at 3 days in data set [1] and in data set [2] was greater than 44400 nM throughout.
Take `CCCCCCCCCCCCCCCCCOC[C@H](COP(=O)(O)OC[C@@]1(C#N)O[C@@H](c2ccc3c(N)ncnn23)[C@H](O)[C@@H]1O)OCc1cc(F)cc(C#N)c1` [Compound 53, ((2R,3S,4R,5S)-5-(4-aminopyrrolo[2,1-f][1,2,4]triazin-7-yl)-2-cyano-3,4-dihydroxytetrahydrofuran-2-yl)methyl ((R)-2-((3-cyano-5-fluorobenzyl)oxy)-3-(heptadecyloxy)propyl) hydrogen phosphate]: the EC50 in the data set with HCV Replicon 1B and with HCV Replicon 2A was 15500 nM throughout. Further, the figures for the CC50 at 3 days in data set [1] and in data set [2] were greater than 44400 nM and 36200 nM, respectively.
`CCCCCCCCCCCCCCCCC[C@H](COP(=O)(O)OC[C@@]1(C#N)O[C@@H](c2ccc3c(N)ncnn23)[C@H](O)[C@@H]1O)OCc1cc(Cl)cc(C#N)c1` [Compound 76, ((2R,3S,4R)-5-(4-aminopyrrolo[2,1-f][1,2,4]triazin-7-yl)-2-cyano-3,4-dihydroxytetrahydrofuran-2-yl)methyl ((R)-2-((3-chloro-5-cyanobenzyl)oxy)nonadecyl) hydrogen phosphate] returned a CC50 at 96 h in “in vitro” of 6.39 µM.
Still for that read-out and setting: the figure for `CCCCCCCCCCCCCCCCCC[C@H](COP(=O)(O)OC[C@@]1(C#N)O[C@@H](c2ccc3c(N)ncnn23)[C@H](O)[C@@H]1O)OCc1cc(F)cc(C#N)c1` [Compound 84, ((2R,3S,4R,5S)-5-(4-aminopyrrolo[2,1-f][1,2,4]triazin-7-yl)-2-cyano-3,4-dihydroxytetrahydrofuran-2-yl)methyl ((R)-2-((3-cyano-5-fluorobenzyl)oxy)icosyl) hydrogen phosphate] is 1.82 µM.
Same read-out and setting: to `CCCCCCCCCCCCCCCCOC[C@@H](COP(=O)(O)OC[C@@]1(C#N)O[C@@H](c2ccc3c(N)ncnn23)[C@H](O)[C@@H]1O)OCc1cc(F)cc(C#N)c1` [Compound 88, ((2R,3S,4R,5S)-5-(4-aminopyrrolo[2,1-f][1,2,4]triazin-7-yl)-2-cyano-3,4-dihydroxytetrahydrofuran-2-yl)methyl ((S)-2-((3-cyano-5-fluorobenzyl)oxy)-3-(hexadecyloxy)propyl) hydrogen phosphate] belongs 2.21 µM.
